Our source for the antifungal activity values is US5233062A, “Antibiotic eicosenoic acids” (Merck & Co., Inc., priority 1992, dated 1993).

Holding throughout (experiment): antifungal disc diffusion assay
Format in all cases: cell-based
For orientation: In agar diffusion tests the substance spreads into inoculated agar from a disc or well.

In one test the test system is Cryptococous neoformans. As to the method:
(§1) The antifungal activity of the compounds may be detected in an antifungal assay employing disc diffusion methods against a panel of representative yeasts, filamentous fungi (molds) and bacteria.
(§2) For carrying out the assay, seeded assay plates are prepared in the following manner according to the type of assay strain.
(§3) Inocula for yeasts and Streptomyces strains are prepared from overnight broth cultures then diluted into potato dextrose […] to a final concentration of either 40 percent or 70 percent transmission at 660 nm.
(§4) The seeded agar media thus prepared are dispensed into Petri dishes for assays (11 milliliters per dish).
(§5) The samples to be tested for production of antifungal agent are applied to 6.2 mm. filter paper discs (25 microliter/disc) and air dried at 24° C. When the sample to be tested is crude broth, it may be centrifuged prior to application. The discs bearing the material to be tested are then applied employing sterile conditions to be seeded assay plates and the sample rewet with 25 percent sterile aqueous dimethysulfoxide (25 μl/disc). The assay plates are then incubated at either 28° C. or 37° C. for 24 hours.
(§6) Following incubation, the inhibition zones are measured and recorded. The measurements are made from the extreme edge where growth differs from the background zone. The zones are noted as to appearance as fuzzy edge and clear center, hazy throughout, slightly hazy, very hazy or ringed.

For the next test, the system named is Candida albicans. As to the method:
as §1, §2, §3
(§7) For strains of Candida albicans and Saccharomyces cerevisiae, sterile saline is employed in place of potato dextrose broth. Assay plates are prepared by diluting the inoculum into appropriate molten agar medium, cooled to 45° C. to obtain a final concentration of 4 percent.
as §4, §5, §6

Another test relates to Saccharomyces cerevisiae. How it is done:
as §1, §2, §3, §7, §4, §5, §6

The next test has as its system Candida pseudotropicalis. How it is done: as §1, §2, §3, §4, §5, §6
Another test deals with Candida parapsilosis. How it is done:
as §1, §2, §3, §4, §5, §6

A further test deals with Candida neoformans. How it is done:
as §1, §2, §3, §4, §5, §6

The next test deals with Ceratocystis ulmi. The conditions noted are these: filamentous fungus Ceratocystis ulmi. As to the method:
as §1, §2
(§8) Inocula for filamentous fungi are prepared by scraping the surface of stock plates maintained on potato dextrose agar with a moistened sterile dacron swab. The spores and mycelia are then suspended in 10 milliliters of sterile potato dextrose broth and adjusted to 70 percent transmission at 660 nm.
as §4, §5
(§9) Following incubation, the inhibition zones are measured and recorded. The measurements are made from the extreme edge where growth differs from the background zone. […]

The subject of a further test is Alternaria solani. The conditions noted are these: filamentous fungus Alternaria solani. How it is done: as §1, §2, §8, §4, §5, §9

Consider `CCCCCCC(=O)CCCCCC/C=C/C(O)C(O)C(O)C(C)(N)C(=O)O` (stereo not drawn) [Compound IB], for which the antifungal activity result with Cryptococous neoformans, in the test with Candida albicans and in the test with Saccharomyces cerevisiae was “active” in each case.
On to `CCCCCCC(=O)CCCCCC/C=C/C(O)C(O)C(O)C(N)(CO)C(=O)O` (stereo not drawn) [Compound IA], for which the antifungal activity entry in the test with Candida pseudotropicalis is listed as “active”; with Candida parapsilosis, “active”; with Candida neoformans, “active”; with Candida albicans, “active”; with Ceratocystis ulmi, “very strong antifungal activity”; with Alternaria solani, “very strong antifungal activity”.
